Where only a bound is given, the exact number is not on record here.

Drawing on ChEMBL document CHEMBL3259724, “Design, syntheses, and characterization of piperazine based chemokine receptor CCR5 antagonists as anti prostate cancer agents” (Bioorg Med Chem Lett, 2014), this text covers IC50 and CC50 for 15 compounds.

Data set [1] can be described thus: Antiproliferative activity against human M12 cells after 72 hrs by WST-1 assay. In kind it is functional, cell-based. Conditions: M12, 72 h.
In the next data set the test system is PC-3. The data set is described as follows: Antiproliferative activity against human PC3 cells after 72 hrs by WST-1 assay. In kind it is functional, cell-based. As to conditions: PC-3, 72 h.
Data set [2] is described as follows: Cytotoxicity against mouse NIH/3T3 cells after 48 hrs by neutral red uptake assay. Conditions: read-out: TC50. It is filed as cell-based, NIH3T3.
Data set [3] addresses C-C chemokine receptor type 5 (Homo sapiens, UniProt P51681). The data set is described as follows: Antagonist activity at CCR5 (unknown origin) expressed in human MOLT4 cells assessed as inhibition of RANTES-stimulated calcium mobilization treated for 15 mins prior to RANTES addition by spectrophotometric analysis. It is filed as functional, cell-based, MOLT-4.

C-C chemokine receptor type 5, sequence (P51681 whole entry): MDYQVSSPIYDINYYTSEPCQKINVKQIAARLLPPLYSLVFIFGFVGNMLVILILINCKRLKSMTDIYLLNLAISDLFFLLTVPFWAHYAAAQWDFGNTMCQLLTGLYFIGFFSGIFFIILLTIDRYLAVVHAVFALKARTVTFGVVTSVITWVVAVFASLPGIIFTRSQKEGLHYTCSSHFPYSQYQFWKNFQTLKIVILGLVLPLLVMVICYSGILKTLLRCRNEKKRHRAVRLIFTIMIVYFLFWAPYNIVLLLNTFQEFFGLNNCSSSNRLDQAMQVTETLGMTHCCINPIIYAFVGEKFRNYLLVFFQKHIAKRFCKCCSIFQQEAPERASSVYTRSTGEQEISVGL

Take `CCN(CC)c1ccc(CN2CCN(c3ccc(OC(C)C)c(NC(=O)c4cnccn4)c3)CC2)cc1`: the results for the IC50 (in data set [1]; with PC-3) were 11.4 µM and 6.5 µM, respectively. The CC50 at 48 h in data set [2] amounted to 31.9 µM.
Turning to `CC(C)Oc1ccc(N2CCN(Cc3ccc([N+](=O)[O-])cc3)CC2)cc1NC(=O)c1cnccn1`, the values for the IC50 (in data set [1]; in the data set with PC-3) were 78.7 µM and 49.1 µM, respectively. Further, in data set [2], the CC50 at 48 h was 29.3 µM.
For `CC(C)Oc1ccc(N2CCN(Cc3ccccc3)CC2)cc1NC(=O)c1cnccn1`, the IC50 in data set [1] turned out to be 29.9 µM; with PC-3, 67 µM. Further, the CC50 at 48 h in data set [2] was determined as 46.6 µM.
As to `CC(C)Oc1ccc(N2CCN(Cc3ccccc3[N+](=O)[O-])CC2)cc1NC(=O)c1cnccn1`, the concentration for half-maximal inhibition (IC50) amounted to 183 µM in data set [1], 16.8 µM in data set [3] and 62.9 µM in the data set on PC-3. Further, the CC50 at 48 h in data set [2] was above 50 µM.
Consider `CC(C)Oc1ccc(N2CCN(Cc3ccc(Cl)cc3)CC2)cc1NC(=O)c1cnccn1`, for which the IC50 in data set [1] turned out to be 26.3 µM; with PC-3, 56.1 µM. The CC50 at 48 h in data set [2] stood at 1.6 µM.
The corresponding values for `CC(C)Oc1ccc(N2CCN(Cc3ccc(Br)cc3)CC2)cc1NC(=O)c1cnccn1` are 48.8 µM, 31.5 µM and above 50 µM.
As for `COC(=O)c1ccc(CN2CCN(c3ccc(OC(C)C)c(NC(=O)c4cnccn4)c3)CC2)cc1`, the IC50 was 73.7 µM in data set [1] and 91.5 µM in the data set with PC-3.
The corresponding values for `CC(C)Oc1ccc(N2CCN(Cc3ccc(C(=O)O)cc3)CC2)cc1NC(=O)c1cnccn1` are 129 µM and 74 µM.
The corresponding values for `CC(C)Oc1ccc(N2CCN(Cc3ccc(S(C)(=O)=O)cc3)CC2)cc1NC(=O)c1cnccn1` are 141 µM and above 100 µM.
Consider `Cc1ccc(CN2CCN(c3ccc(OC(C)C)c(NC(=O)c4cnccn4)c3)CC2)cc1`, for which the figures for the 50% inhibitory concentration (IC50) (in data set [1]; with PC-3) were 15.8 µM and 19.7 µM, respectively.
For `CC(C)Oc1ccc(N2CCN(Cc3ccc(N)cc3)CC2)cc1NC(=O)c1cnccn1`, the IC50 was 19.7 µM in data set [1] and 20.1 µM with PC-3. The CC50 at 48 h in data set [2] worked out at 10.7 µM.
For `CSc1ccc(CN2CCN(c3ccc(OC(C)C)c(NC(=O)c4cnccn4)c3)CC2)cc1`, the IC50 was above 100 µM in data set [1] and 78 µM with PC-3.
Take `CC(=O)Nc1ccc(CN2CCN(c3ccc(OC(C)C)c(NC(=O)c4cnccn4)c3)CC2)cc1`: the figures for the IC50 (in data set [1]; in the data set on PC-3) were 39 µM and 24.3 µM, respectively. The CC50 at 48 h in data set [2] is 7.8 µM.
Regarding `CC(C)Oc1ccc(N2CCN(Cc3ccc(N(C)C)cc3)CC2)cc1NC(=O)c1cnccn1`, the IC50 in data set [1] worked out at 65.9 µM; in the data set with PC-3, 71.2 µM. Moreover, in data set [2], the CC50 at 48 h was above 50 µM.
Take `Cc1ccc(-c2ccc3c(c2)C=C(C(=O)Nc2ccc(C[N+](C)(C)C4CCOCC4)cc2)CCC3)cc1`: the IC50 in data set [1] stood at 20.4 µM; in the data set with PC-3 it was 37.9 µM.
